This is an account of results in patent US20240246979A1, “cGAS INHIBITORS” (Eli Lilly and Company, priority 2022, published 2024).

One may read the IC50 as the concentration that inhibits the measured activity by half.

Experiment [1] has as its target T1, cGAS (Homo sapiens, UniProt Q8N884). Briefly: Cellular assay to measure cGAS activity (IFNb AlphaLISA in THP1 cells stimulated by RDG-Adenovirus-GFP). The experiment is classed as cell-based. Also on record: host or cells: THP1 cells differentiated with PMA and stimulated with RDG-Adenovirus-GFP. As to conditions: PMA-differentiated THP1 cells, RDG-Adenovirus-GFP at 1000 MOI; inhibition of IFNb production as marker for cGAS activity. On the procedure:
Cellular assay to measure cGAS activity: Use THP1 cell line from ATCC to determine inhibition of cGAS activity by test compounds in human cells. Plate cells on 96-well plates at 0.2×10^6/well and differentiate with phorbol myristate acetate (PMA) at 37° C./5% CO2. After 24 hours, replace PMA containing media with media lacking PMA and further incubate overnight. Stimulate cells were then by RDG-Adenovirus-GFP (Vector Biolabs #1768) at 1000 MOI for 4 hours prior to the addition of test compounds. After overnight incubation, transfer 10 μL of the media from each well to a new plate for IFNb analysis as a marker for cGAS activity. Measure quantification of IFNb with an IFNb AlphaLISA Detection kit (Perkin Elmer AL3133F) by mixing the acceptor beads with the cell supernatant followed by the addition of the biotinylated antibody and donor beads. Measure the relative fluorescence signal produced from the interaction of the donor and acceptor beads by a PHERAStar AlphaLISA protocol and evaluate the inhibitory effect of a compound by plotting specific inhibition of IFNb production against log concentration of the test compound. Calculate IC50 values using a 4-parameter non-linear logistic equation (y=(S0+((SInf−S0)/(1+((qAC50/x)^nHill))))).
For orientation: Alpha assays give light when donor and acceptor beads are brought close together.

Experiment [2] has as its target T1, cGAS. Briefly: In vitro inhibition assay of cGAS activity (cGAMP production, RapidFire mass spectrometry). Also on record: Insert cDNA encoding full-length of human cGAS; His6; made in house; host or cells: E. coli BL21(DE3). The experiment is classed as biochemical. As to conditions: 10 nM recombinant human cGAS, 60 nM 75-bp dsDNA, 50 μM ATP, 50 μM GTP, 3 hrs. Here is the method: Expression and Purification of Recombinant cGAS Protein: Insert cDNA encoding full-length of human cGAS into a modified bacterial expression vector containing an in-frame His6-tag. Induce the E. coli strain BL21(DE3) harboring the plasmid with 1 mM IPTG (Isopropyl β-D-1-thiogalactopyranoside) at 18° C. overnight. Purify the His6-tagged cGAS protein over HISpur Ni-NTA resin in the presence of benzonase and RNase followed by Superdex 200 size exclusion chromatography with storage buffer (50 mM Tris-HCl pH 7.5, 300 mM NaCl, 1 mM DTT, 10% glycerol).
In vitro inhibition assay of cGAS activity: Add a 5 μL mixture containing 10 mM Tris-Cl pH 7.5, 50 mM NaCl, 5 mM MgCl2, 1 mM DTT, 0.01% Triton X-100, 60 nM 75-bp dsDNA, 50 μM ATP, 50 μM GTP, 10 nM of recombinant human cGAS, and serial dilutions of a test compound in DMSO to a 384-well plate and incubate at ambient temperature for 3 hrs. Quench the reaction by the addition of 100 μL of stop solution containing 0.1% formic acid and 0.1 μM internal standard (3′3′-difluoro cGAMP). Measure the amount of cGAMP produced by RapidFire 365 mass spectrometry and evaluate inhibitory effect of a compound by plotting percent specific inhibition of cGAMP production against log concentration of the test compound. Calculate IC50 values using a 4-parameter non-linear logistic equation (y=(S0+((Sinf−S0)/(1+((qAC50/x)^nHill))))).

T1 sequence (Q8N884 whole entry): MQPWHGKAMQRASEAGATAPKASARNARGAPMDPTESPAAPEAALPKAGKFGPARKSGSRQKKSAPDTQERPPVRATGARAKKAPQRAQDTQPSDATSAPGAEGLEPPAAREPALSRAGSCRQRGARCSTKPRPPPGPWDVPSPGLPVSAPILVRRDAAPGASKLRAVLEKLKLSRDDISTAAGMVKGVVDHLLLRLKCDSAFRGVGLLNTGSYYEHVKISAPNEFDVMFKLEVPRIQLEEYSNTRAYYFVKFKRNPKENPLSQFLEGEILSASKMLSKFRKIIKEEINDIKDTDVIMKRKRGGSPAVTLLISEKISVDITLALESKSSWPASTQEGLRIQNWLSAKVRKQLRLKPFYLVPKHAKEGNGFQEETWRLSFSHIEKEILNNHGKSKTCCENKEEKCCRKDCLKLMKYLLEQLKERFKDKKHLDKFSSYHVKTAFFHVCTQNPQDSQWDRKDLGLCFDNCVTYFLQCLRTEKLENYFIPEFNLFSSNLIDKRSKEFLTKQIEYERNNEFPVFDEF

As to `C[C@H]1C(=O)NCCc2[nH]c3c(Cl)c(Cl)cc(NCC(F)(F)CO)c3c21` (single isomer, unassigned) [Example 69, (R)-7,8-Dichloro-10-((2,2-difluoro-3-hydroxypropyl)amino)-1-methyl-3,4,5,6-tetrahydroazepino[4,5-b]indol-2(1H)-one or (S)-7,8-Dichloro-10-((2,2-difluoro-3-hydroxypropyl)amino)-1-methyl-3,4,5,6-tetrahydroazepino[4,5-b]indol-2(1H)-one], the IC50 is over 10000 nM in experiment [1] and 630 nM in experiment [2].

On to `C[C@@H]1C(=O)NCCc2[nH]c3c(Cl)c(Cl)cc(OCC(F)(F)CO)c3c21` (single isomer, unassigned) [Example 73], for which the IC50 was 755 nM in experiment [1] and 11.2 nM in experiment [2].

For `C[C@@H]1C(=O)NCCc2[nH]c3c(Cl)c(Cl)cc(OCC(F)(F)CO)c3c21` (single isomer, unassigned) [Example 74], the results for the IC50 in experiment [1] and in experiment [2] were over 10000 nM and 3440 nM, respectively.

Take `COCCOc1cc(Cl)c(Cl)c2[nH]c3c(c12)[C@H](C)C(=O)NCC3` (single isomer, unassigned) [Example 80]: the values for the IC50 in experiment [1] and in experiment [2] were 280 nM and 8.12 nM, respectively.

As to `COCCOc1cc(Cl)c(Cl)c2[nH]c3c(c12)[C@H](C)C(=O)NCC3` (single isomer, unassigned) [Example 81], the half-inhibitory concentration (IC50) in experiment [1] was determined as 7060 nM; in experiment [2], 1200 nM.

Take `C[C@@H]1C(=O)NCCc2[nH]c3c(Cl)c(Cl)cc(OC[C@@H](C)O)c3c21` (single isomer, unassigned) [Example 82]: the half-maximal inhibitory concentration (IC50) in experiment [1] amounted to 910 nM; in experiment [2], 32.5 nM.

On to `C[C@@H]1C(=O)NCCc2[nH]c3c(Cl)c(Cl)cc(OC[C@@H](C)O)c3c21` (single isomer, unassigned) [Example 83], for which the 50% inhibitory concentration (IC50) in experiment [1] is over 10000 nM; in experiment [2], 4740 nM.

Take `C[C@H](O)COc1cc(Cl)c(Cl)c2[nH]c3c(c12)[C@H](C)C(=O)NCC3` (single isomer, unassigned) [Example 84]: the IC50 in experiment [1] worked out at 1430 nM; in experiment [2] it was 44.2 nM.

For `C[C@H](O)COc1cc(Cl)c(Cl)c2[nH]c3c(c12)[C@H](C)C(=O)NCC3` (single isomer, unassigned) [Example 85], the figures for the IC50 in experiment [1] and in experiment [2] were 7260 nM and 2770 nM, respectively.

Regarding `C[C@H]1C(=O)NCCc2[nH]c3c(Cl)c(Cl)cc(CC#N)c3c21` (single isomer, unassigned) [Example 89], the IC50 in experiment [1] worked out at 1130 nM; in experiment [2], 20 nM.

Turning to `C[C@H]1C(=O)NCCc2[nH]c3c(Cl)c(Cl)cc(CC#N)c3c21` (single isomer, unassigned) [Example 90], the half-inhibitory concentration (IC50) in experiment [1] stood at 993 nM; in experiment [2], 552 nM.

With `C[C@@H]1C(=O)NCCc2c1c1c(NC(=O)CO)cc(Cl)c(Cl)c1n2C` (single isomer, unassigned) [Example 92], the half-maximal inhibitory concentration (IC50) turned out to be 259 nM in experiment [1] and 17.3 nM in experiment [2].

Turning to `C[C@@H]1C(=O)NCCc2c1c1c(NC(=O)CO)cc(Cl)c(Cl)c1n2C` (single isomer, unassigned) [Example 93], the concentration for half-maximal inhibition (IC50) in experiment [1] was over 10000 nM; in experiment [2], 2760 nM.

As for `C[C@H](O)C(=O)Nc1cc(Cl)c(Cl)c2c1c1c(n2C)CCNC(=O)[C@H]1C` (single isomer, unassigned) [Example 94], the 50% inhibitory concentration (IC50) in experiment [1] came to 663 nM; in experiment [2], 24.7 nM.

As to `C[C@H](O)C(=O)Nc1cc(Cl)c(Cl)c2c1c1c(n2C)CCNC(=O)[C@H]1C` (single isomer, unassigned) [Example 95], the concentration for half-maximal inhibition (IC50) was at least 10000 nM in experiment [1] and 7580 nM in experiment [2].

In the case of `C[C@@H](O)CNc1cc(Cl)c(Cl)c2c1c1c(n2C)CCNC(=O)[C@@H]1C` (single isomer, unassigned) [Example 98], the IC50 stood at 2180 nM in experiment [1] and 42.4 nM in experiment [2].

For the compound `C[C@@H](O)CNc1cc(Cl)c(Cl)c2c1c1c(n2C)CCNC(=O)[C@@H]1C` (single isomer, unassigned) [Example 99], the results for the 50% inhibitory concentration (IC50) in experiment [1] and in experiment [2] were over 10000 nM and 1640 nM, respectively.

As for `C[C@@H](O)CNc1cc(Cl)c(Cl)c2c1c1c(n2C)CCNC(=O)[C@@H]1C` (single isomer, unassigned) [Example 100], the 50% inhibitory concentration (IC50) is 1130 nM in experiment [1] and 30.4 nM in experiment [2].

As for `C[C@@H](O)CNc1cc(Cl)c(Cl)c2c1c1c(n2C)CCNC(=O)[C@@H]1C` (single isomer, unassigned) [Example 101], the IC50 in experiment [1] was over 10000 nM; in experiment [2], 1260 nM.

For the compound `Cn1ncc(-c2cc(Cl)c(Cl)c3[nH]c4c(c23)CC(=O)NC[C@H]4CC(C)(C)O)n1` (single isomer, unassigned) [Example 103], the 50% inhibitory concentration (IC50) in experiment [1] is 398 nM; in experiment [2], 17.6 nM.

`Cn1ncc(-c2cc(Cl)c(Cl)c3[nH]c4c(c23)CC(=O)NC[C@H]4CC(C)(C)O)n1` (single isomer, unassigned) [Example 104]: the 50% inhibitory concentration (IC50) in experiment [1] stood at 1570 nM; in experiment [2], 42.2 nM.

Consider `CC(C)(O)C[C@@H]1CNC(=O)Cc2c1[nH]c1c(Cl)c(Cl)cc(CC#N)c21` (single isomer, unassigned) [Example 106], for which the results for the 50% inhibitory concentration (IC50) in experiment [1] and in experiment [2] were 861 nM and 188 nM, respectively.

For `CC(C)(O)C[C@@H]1CNC(=O)Cc2c1[nH]c1c(Cl)c(Cl)cc(CC#N)c21` (single isomer, unassigned) [Example 107], the results for the IC50 in experiment [1] and in experiment [2] were 649 nM and 12.5 nM, respectively.

Take `CC(C)(O)C[C@@H]1CNC(=O)Cc2c1[nH]c1c(Cl)c(Cl)cc(OCC#N)c21` (single isomer, unassigned) [Example 108]: the half-inhibitory concentration (IC50) in experiment [1] is 676 nM; in experiment [2] it was 25.7 nM.

In the case of `CC(C)(O)C[C@@H]1CNC(=O)Cc2c1[nH]c1c(Cl)c(Cl)cc(OCC#N)c21` (single isomer, unassigned) [Example 109], the figures for the 50% inhibitory concentration (IC50) in experiment [1] and in experiment [2] were 1860 nM and 159 nM, respectively.

On to `Cn1c2c(c3c(OCC#N)cc(Cl)c(Cl)c31)CC(=O)NC[C@H]2CC(C)(C)O` (single isomer, unassigned) [Example 110, (R)-2-((7,8-Dichloro-5-(2-hydroxy-2-methylpropyl)-6-methyl-2-oxo-1,2,3,4,5,6-hexahydroazepino[4,5-b]indol-10-yl)oxy)acetonitrile or (S)-2-((7,8-Dichloro-5-(2-hydroxy-2-methylpropyl)-6-methyl-2-oxo-1,2,3,4,5,6-hexahydroazepino[4,5-b]indol-10-yl)oxy)acetonitrile], for which the half-inhibitory concentration (IC50) in experiment [1] worked out at 3120 nM; in experiment [2], 2610 nM.

Turning to `Cn1c2c(c3c(OCC#N)cc(Cl)c(Cl)c31)CC(=O)NC[C@H]2CC(C)(C)O` (single isomer, unassigned) [Example 111, (R)-2-((7,8-Dichloro-5-(2-hydroxy-2-methylpropyl)-6-methyl-2-oxo-1,2,3,4,5,6-hexahydroazepino[4,5-b]indol-10-yl)oxy)acetonitrile or (S)-2-((7,8-Dichloro-5-(2-hydroxy-2-methylpropyl)-6-methyl-2-oxo-1,2,3,4,5,6-hexahydroazepino[4,5-b]indol-10-yl)oxy)acetonitrile], the IC50 in experiment [1] was 231 nM; in experiment [2] it was 13.1 nM.

As to `Cn1c2c(c3c(CC#N)cc(Cl)c(Cl)c31)CC(=O)NC[C@H]2CCO` (single isomer, unassigned) [Example 122], the results for the IC50 in experiment [1] and in experiment [2] were 2940 nM and 934 nM, respectively.
